Data from US4072574A, “System for in vitro assay for mutagenicity and/or carcinogenicity of chemicals or other exogenous agents” (priority 1976, dated 1978).

Legend:
[1] = known status of the compound; cited from earlier work
[2] = tested on: AMV DNA polymerase; test: Fidelity of in vitro DNA synthesis (error frequency) with AMV DNA polymerase copying synthetic polynucleotide templates
Excerpt: In this invention, the ability of carcinogens to decrease the fidelity of in vitro DNA synthesis will be used to screen for carcinogenic or mutagenic agents. The system uses synthetic polynucleotides of defined composition which may be copied in the test tubes with procaryotic, eucaryotic or viral DNA polymerases. The use of synthetic polynucleotides of defined composition allows the measurement of the simultaneous incorporation of the correct, complementary nucleotide and an incorrect, non-complementary nucleotide. The correct nucleotide is labeled with [α-^32 P] of low specific activity and the incorrect nucleotide is labeled with [^3 H] of high specific activity. Through this double labeled reaction it is possible to determine the simultaneous incorporation of both nucleotides and thus to determine an error frequency. The error frequency may be defined as the ratio of the incorrect/correct nucleotide incorporation. Agents which increase this error frequency may be scored as positive. […] Agents which score positive would be checked using different templates to underscore the positive results. In this system different polymerases will be used as well as different templates. One would expect that most carcinogens would change the fidelity of DNA synthesis with different polymerases as well as with different templates though this need not be the case.
Each assay will consist of a polymerase, a polynucleotide template that only contains one or two nucleotides, a complementary nucleotide and a non-complementary nucleotide as well as magnesium. Both of the nucleotides will be labeled by radioactive precursors and the ratio between the two is to be used for a measure of error frequency in the system. In instances where a template requires two complementary nucleotides, only one will be radioactively labeled.
Reactions (total volume 0.05 ml) which measured complementary nucleotide incorporation contained 50 mM Tris-HCL (pH 8.0), 20 mM KCl, 5 mM dithiothreitol, 5 mM MgCl2, 2μg BSA, […] [α-^32 P] -dTTP (60 dpm/pmole), 1μg poly (A).oligo (dT) (1:1.5 mass ratio), and 0.45 μg of AMV DNA polymerase. For simultaneous quantitation of complementary and non-complementary nucleotide incorporation each reaction was modified to contain 26μM [α-^32 P]dTTP (12 dpm/pmole) and 23μM [^3 H]-dCTP (50,000 dpm/pmole). […] Metals were added directly to the reaction mixture as aqueous solutions of chloride salts. All reactions were incubated for 60 min. at 37° C. Incorporation of radioactive nucleotides into an acid-insoluble and alkali-resistant product was determined by using the precipitation-solubilization procedure as described by Battula and Loeb. All experiments were performed in triplicate and the averages were determined.
In order to determine the effect of different metals on the accuracy of DNA replication, metal cations were added as chloride salts directly to the polymerase reaction. In these experiments, poly (A).oligo (dT) was the template-primer and the simultaneous incorporation of complementary nucleotide, [α-^32 P]-dTMP, and the non-complementery nucleotide, [^3 H]-dCMP, was determined.
The effect of metal salts on the fidelity of DNA synthesis was examined by testing each of the metal salts at a minimum of seven different concentrations.

[3] = 0.02 mM CuCl2, template in drawing 2
[4] = 0.04 mM CuCl2, template in drawing 2
[5] = 0.08 mM CuCl2, template in drawing 2
[6] = 0.12 mM CuCl2, template in drawing 2
[7] = Table 1, template poly (C).oligo (dG), classes 1-3 not defined
[8] = Table 1, template poly [d(A-T)], classes 1-3 not defined
[9] = 0.08 mM CrCl2, template in drawing 1
[10] = 0.16 mM CrCl2, template in drawing 1
[11] = 0.24 mM CrCl2, template in drawing 1
[12] = 0.64 mM CrCl2, template in drawing 1
[13] = 4 mM KC2 H3 O2, template in drawing 5
[14] = 20 mM KC2 H3 O2, template in drawing 5
[15] = 40 mM KC2 H3 O2, template in drawing 5
[16] = 80 mM KC2 H3 O2, template in drawing 5
[17] = 4 mM MgSO4, template in drawing 6
[18] = 6 mM MgSO4, template in drawing 6
[19] = 8 mM MgSO4, template in drawing 6
[20] = 10 mM MgSO4, template in drawing 6
[21] = 8 mM K2 HPO4, template in drawing 4
[22] = 16 mM K2 HPO4, template in drawing 4
[23] = 32 mM K2 HPO4, template in drawing 4
[24] = 40 mM K2 HPO4, template in drawing 4
[25] = 0.8 mM Ca(C2 H3 O2)2, template in drawing 3
[26] = 2.4 mM Ca(C2 H3 O2)2, template in drawing 3
[27] = 4.0 mM Ca(C2 H3 O2)2, template in drawing 3
[28] = 4.8 mM Ca(C2 H3 O2)2, template in drawing 3

[Cl][Cu][Cl] [CuCl2]
Carcinogen or Mutagen [1]: ±
Complementary Deoxynucleotide Incorporation [2, 3]: 385 pmol
Error Frequency [2, 3]: 1/875
Non-complementary Deoxynucleotide Incorporation [2, 3]: 0.44 pmol
Complementary Deoxynucleotide Incorporation [2, 4]: 130 pmol
Error Frequency [2, 4]: 1/722
Non-complementary Deoxynucleotide Incorporation [2, 4]: 0.18 pmol
Complementary Deoxynucleotide Incorporation [2, 5]: 54 pmol
Error Frequency [2, 5]: 1/540
Non-complementary Deoxynucleotide Incorporation [2, 5]: 0.10 pmol
Complementary Deoxynucleotide Incorporation [2, 6]: 36 pmol
Error Frequency [2, 6]: 1/450
Non-complementary Deoxynucleotide Incorporation [2, 6]: 0.08 pmol
Class [2, 7]: 1
Metal Concentration which yielded the largest observed change in error rate ([2]; template poly (C).oligo (dG)): 0.08 mM

[Cl-].[Rb+] [RbCl2]
Carcinogen or Mutagen [1]: -
Class [2, 8]: 2
Metal Concentration which yielded the largest observed change in error rate ([2]; template poly [d(A-T)]): 20 mM

[Cl-].[K+] [KCl, potassium chloride]
Carcinogen or Mutagen [1]: -
effect on the fidelity of DNA synthesis (in words) ([2]; 1 mM to 300 mM, poly (A).oligo (dT)): did not alter the fidelity of DNA synthesis
Class [2, 8]: 2
Metal Concentration which yielded the largest observed change in error rate ([2]; template poly [d(A-T)]): 150 mM

[Cl][Cr][Cl] [CrCl2]
Carcinogen or Mutagen [1]: +
Complementary Deoxynucleotide Incorporation [2, 9]: 133 pmol
Error Frequency [2, 9]: 1/578
Non-complementary Deoxynucleotide Incorporation [2, 9]: 0.23 pmol
Complementary Deoxynucleotide Incorporation [2, 10]: 169 pmol
Error Frequency [2, 10]: 1/528
Non-complementary Deoxynucleotide Incorporation [2, 10]: 0.32 pmol
Complementary Deoxynucleotide Incorporation [2, 11]: 127 pmol
Error Frequency [2, 11]: 1/363
Non-complementary Deoxynucleotide Incorporation [2, 11]: 0.35 pmol
Complementary Deoxynucleotide Incorporation [2, 12]: 71 pmol
Error Frequency [2, 12]: 1/192
Non-complementary Deoxynucleotide Incorporation [2, 12]: 0.37 pmol
Class [2, 8]: 1
Metal Concentration which yielded the largest observed change in error rate ([2]; template poly [d(A-T)]): 0.64 mM

NCCCCNCCCN [spermidine]
effect on the fidelity of DNA synthesis (in words) ([2]; 0.1 to 5 mM, poly (A).oligo (dT)): did not alter the fidelity of DNA synthesis

CC(=O)[O-].[K+] [KC2 H2 O2]
Carcinogen or Mutagen [1]: -
Complementary Deoxynucleotide Incorporation [2, 13]: 484 pmol
Error Frequency [2, 13]: 1/733
Non-complementary Deoxynucleotide Incorporation [2, 13]: 0.66 pmol
Complementary Deoxynucleotide Incorporation [2, 14]: 423 pmol
Error Frequency [2, 14]: 1/755
Non-complementary Deoxynucleotide Incorporation [2, 14]: 0.56 pmol
Complementary Deoxynucleotide Incorporation [2, 15]: 378 pmol
Error Frequency [2, 15]: 1/741
Non-complementary Deoxynucleotide Incorporation [2, 15]: 0.51 pmol
Complementary Deoxynucleotide Incorporation [2, 16]: 379 pmol
Error Frequency [2, 16]: 1/743
Non-complementary Deoxynucleotide Incorporation [2, 16]: 0.51 pmol
Class [2, 7]: 3
Class ([2]; Table 2, classes not defined): 3
Metal Concentration which yielded the largest observed change in error rate ([2]; template poly (C).oligo (dG)): 100 mM

[O]=[Cr](=[O])=[O] [CrO3]
Carcinogen or Mutagen [1]: +
Class [2, 8]: 1
Metal Concentration which yielded the largest observed change in error rate ([2]; template poly [d(A-T)]): 16 mM

[Cl][Fe][Cl] [FeCl2]
Carcinogen or Mutagen [1]: ±
Class [2, 7]: 2
Metal Concentration which yielded the largest observed change in error rate ([2]; template poly (C).oligo (dG)): 4 mM

N.N.O=S(=O)(O)O [(NH4)2 SO4]
Carcinogen or Mutagen [1]: -
Class [2, 7]: 2
Metal Concentration which yielded the largest observed change in error rate ([2]; template poly (C).oligo (dG)): 120 mM

CC(=O)[O-].CC(=O)[O-].[Cd+2] [Cd(C2 H3 O2)2]
Carcinogen or Mutagen [1]: +
Class [2, 7]: 1
Metal Concentration which yielded the largest observed change in error rate ([2]; template poly (C).oligo (dG)): 0.24 mM

O=[N+]([O-])[O-].[Ag+] [AgNO3]
Carcinogen or Mutagen [1]: +
Class [2, 8]: 1
Metal Concentration which yielded the largest observed change in error rate ([2]; template poly [d(A-T)]): 0.03 mM

[Cl-].[Cl-].[Zn+2] [ZnCl2]
Carcinogen or Mutagen [1]: ±
Class [2, 8]: 2
Metal Concentration which yielded the largest observed change in error rate ([2]; template poly [d(A-T)]): 0.4 mM

O=S(=O)([O-])[O-].[Mg+2] [MgSO4]
Carcinogen or Mutagen [1]: -
Complementary Deoxynucleotide Incorporation [2, 17]: 299 pmol
Error Frequency [2, 17]: 1/598
Non-complementary Deoxynucleotide Incorporation [2, 17]: 0.50 pmol
Complementary Deoxynucleotide Incorporation [2, 18]: 398 pmol
Error Frequency [2, 18]: 1/632
Non-complementary Deoxynucleotide Incorporation [2, 18]: 0.63 pmol
Complementary Deoxynucleotide Incorporation [2, 19]: 349 pmol
Error Frequency [2, 19]: 1/635
Non-complementary Deoxynucleotide Incorporation [2, 19]: 0.55 pmol
Complementary Deoxynucleotide Incorporation [2, 20]: 360 pmol
Error Frequency [2, 20]: 1/621
Non-complementary Deoxynucleotide Incorporation [2, 20]: 0.58 pmol
Class [2, 7]: 3
Class ([2]; Table 2, classes not defined): 3
Metal Concentration which yielded the largest observed change in error rate ([2]; template poly (C).oligo (dG)): 10 mM

CC1=C(/C=C/C(C)=C/C=C/C(C)=C/CO)C(C)(C)CCC1 [retinol]
effect on the fidelity of DNA synthesis (in words) ([2]; 0.2-2μg, poly (A).oligo (dT)): did not alter the fidelity of DNA synthesis

[Cl][Pb][Cl] [PbCl2]
Carcinogen or Mutagen [1]: +
Class [2, 7]: 1
Metal Concentration which yielded the largest observed change in error rate ([2]; template poly (C).oligo (dG)): 4 mM

[Cl-].[Na+] [NaCl]
Class [2, 8]: 2
Metal Concentration which yielded the largest observed change in error rate ([2]; template poly [d(A-T)]): 120 mM

O=P([O-])(O)O.[K+] [KH2 PO4]
Carcinogen or Mutagen [1]: -
Class [2, 8]: 2
Metal Concentration which yielded the largest observed change in error rate ([2]; template poly [d(A-T)]): 80 mM

[Cl][Mn][Cl] [MnCl2]
Class [2, 7]: 1
Metal Concentration which yielded the largest observed change in error rate ([2]; template poly (C).oligo (dG)): 10 mM
effect on the fidelity of DNA synthesis (in words) ([2]; various templates): alter the fidelity

Cn1c(=O)c2c(ncn2C)n(C)c1=O [caffeine]
effect on the fidelity of DNA synthesis (in words) ([2]; 0.1-20 mM, poly (A).oligo (dT)): did not alter the fidelity of DNA synthesis

O=P([O-])([O-])O.[K+].[K+] [K2 HPO4]
Carcinogen or Mutagen [1]: -
Complementary Deoxynucleotide Incorporation [2, 21]: 179 pmol
Error Frequency [2, 21]: 1/814
Non-complementary Deoxynucleotide Incorporation [2, 21]: 0.22 pmol
Complementary Deoxynucleotide Incorporation [2, 22]: 180 pmol
Error Frequency [2, 22]: 1/783
Non-complementary Deoxynucleotide Incorporation [2, 22]: 0.23 pmol
Complementary Deoxynucleotide Incorporation [2, 23]: 107 pmol
Error Frequency [2, 23]: 1/823
Non-complementary Deoxynucleotide Incorporation [2, 23]: 0.13 pmol
Complementary Deoxynucleotide Incorporation [2, 24]: 48 pmol
Error Frequency [2, 24]: 1/960
Non-complementary Deoxynucleotide Incorporation [2, 24]: 0.05 pmol
Class [2, 8]: 2
Class ([2]; Table 2, classes not defined): 2
Metal Concentration which yielded the largest observed change in error rate ([2]; template poly [d(A-T)]): 40 mM

CC(=O)O [Ca(C2 H3 O2)2]
Complementary Deoxynucleotide Incorporation [2, 25]: 217 pmol
Error Frequency [2, 25]: 1/986
Non-complementary Deoxynucleotide Incorporation [2, 25]: 0.22 pmol
Complementary Deoxynucleotide Incorporation [2, 26]: 78 pmol
Error Frequency [2, 26]: 1/975
Non-complementary Deoxynucleotide Incorporation [2, 26]: 0.08 pmol
Complementary Deoxynucleotide Incorporation [2, 27]: 39 pmol
Error Frequency [2, 27]: 1/975
Non-complementary Deoxynucleotide Incorporation [2, 27]: 0.04 pmol
Complementary Deoxynucleotide Incorporation [2, 28]: 17 pmol
Error Frequency [2, 28]: 1/850
Non-complementary Deoxynucleotide Incorporation [2, 28]: 0.02 pmol
Class ([2]; Table 2, classes not defined): 2

[Cl][Cd][Cl] [CdCl2]
Carcinogen or Mutagen [1]: +
Class [2, 7]: 1
Metal Concentration which yielded the largest observed change in error rate ([2]; template poly (C).oligo (dG)): 0.04 mM
